Results published in patent US20140378460A1, “COMPOSITIONS AND METHODS FOR TREATING NEURODEGENERATIVE DISEASE” (COGNITION THERAPEUTICS, INC., priority 2011, published 2014).
pEC50, pKi: −log10 of the molar value. Like-named read-outs stand apart in the source and are kept apart here.

Experiments:
Sigma-1 receptors [1] = settings: Table 11E, clinical compounds; first figure of S1/S2; read-out: Sigma Affinity (S1); cited from earlier work
Sigma-2 receptors = settings: cited from earlier work
VAChT = VAChT (Homo sapiens, UniProt Q16572); settings: cited from earlier work
muscarinic M1, 2, D2 = settings: cited from earlier work
alpha1 AR, 5-HT1a/2, H1 = settings: cited from earlier work
[2] = tested on: Abeta oligomer-induced membrane trafficking deficits in primary hippocampal neurons; assay: Membrane trafficking/exocytosis (MTT) assay; type: cell-based, rat
Description: The methods used to generate the results were as follows in the Membrane Trafficking/Exocytosis (MTT) assay.
Primary hippocampal neurons from E18 Sprague-Dawley rat embryos were plated at optimized concentrations in 384 well plates in NB media (Invitrogen). Neurons were maintained in cultures for 3 weeks, with twice weekly feeding of NB media with N2 supplement (Invitrogen).
A test compound was added to cells at concentrations ranging from 100 uM to 0.001 nM followed by addition of vehicle or Abeta oligomer preparations (3 μM total Abeta protein concentration), and incubated for 1 to 24 hr at 37° C. in 5% CO2. MTT reagent (3-(4,5-dimethylthizaol-2-yl)-2,5diphenyl tetrazolium bromide) (Roche Molecular Biochemicals) was reconstituted in phosphate buffered saline to 5 mg/mL. 10 μl, of MTT labeling reagent is added to each well and incubated at 37° C. for 1 h, then imaged. Exocytosis was assessed by automated microscopy and image processing to quantify the amount of endocytosed and exocytosed formazan.
Each assay plate was formatted so that compounds are tested with and without Abeta oligomer on each plate.

[3] = tested on: SKOV-3 human ovarian cancer cell line; assay: MTS tumor cell viability assay; type: cell-based; settings: by EC50 relative to siramesine
Description: The cytotoxicity of compounds shown below was determined using the CellTiter96 Aqueous One Solution Assay (Promega, Madison, Wis.). […] The plate was read at 490 nm in a Victor3 plate reader (PerkinElmer Life and Analytical Sciences, Shelton, Conn.). The EC^50 value, defined as the concentration of the sigma ligand required to inhibit cell viability by 50% relative to untreated cells, was determined from the dose response curve for each cell line.

[4] = tested on: caspase-3 in SKOV-3 human ovarian cancer cells; assay: Caspase-3 activity in tumor cells; type: cell-based
[5] = tested on: caspase-3 in neuronal cultures; assay: Caspase-3 activity in neurons; type: cell-based
sigma-2 receptor = settings: 1 μM each; 18.4 nM [3H]-RHM-1
Sigma-1 receptors [6] = biological target: T1, Sigma-1 receptors (UniProt Q60492); settings: cited from earlier work
T1 construct: other: known prior art compounds, published studies

alpha 1A, 1B = settings: cited from earlier work
D2 = D2 (Homo sapiens, UniProt P14416); settings: cited from earlier work
neuronal cultures = assay: Neuronal nuclear intensity / morphology; settings: 24 hours

Sequence of VAChT (Q16572 whole entry, species assumed): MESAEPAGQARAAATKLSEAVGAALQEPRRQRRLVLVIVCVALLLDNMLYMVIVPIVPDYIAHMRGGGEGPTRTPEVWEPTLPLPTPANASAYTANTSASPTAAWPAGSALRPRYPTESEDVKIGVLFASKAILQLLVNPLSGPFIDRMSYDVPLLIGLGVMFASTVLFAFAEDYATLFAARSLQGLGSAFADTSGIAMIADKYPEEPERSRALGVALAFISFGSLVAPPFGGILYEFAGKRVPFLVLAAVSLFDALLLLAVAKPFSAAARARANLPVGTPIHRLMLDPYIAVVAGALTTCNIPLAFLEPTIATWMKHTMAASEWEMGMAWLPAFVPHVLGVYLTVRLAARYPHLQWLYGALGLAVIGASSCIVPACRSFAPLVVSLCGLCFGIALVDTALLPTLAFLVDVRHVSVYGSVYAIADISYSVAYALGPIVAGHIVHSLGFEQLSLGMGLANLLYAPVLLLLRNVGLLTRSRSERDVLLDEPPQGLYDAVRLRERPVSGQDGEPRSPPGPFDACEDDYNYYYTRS
Sequence of D2 (P14416 whole entry): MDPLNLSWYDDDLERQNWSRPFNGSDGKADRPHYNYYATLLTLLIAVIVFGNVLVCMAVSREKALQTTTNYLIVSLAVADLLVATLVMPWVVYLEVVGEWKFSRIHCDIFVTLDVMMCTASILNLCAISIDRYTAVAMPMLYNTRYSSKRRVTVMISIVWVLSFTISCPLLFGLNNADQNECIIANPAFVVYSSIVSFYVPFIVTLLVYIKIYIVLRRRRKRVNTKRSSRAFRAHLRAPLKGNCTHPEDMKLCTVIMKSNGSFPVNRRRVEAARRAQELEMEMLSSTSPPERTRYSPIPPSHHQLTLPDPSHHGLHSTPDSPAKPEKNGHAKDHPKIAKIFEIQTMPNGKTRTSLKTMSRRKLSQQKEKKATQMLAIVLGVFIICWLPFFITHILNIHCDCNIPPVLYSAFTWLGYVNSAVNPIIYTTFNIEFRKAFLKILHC

COc1ccc(CCN2CCN(CCCc3ccccc3)CC2)cc1OC.Cl.Cl [Cutamesine, Cutamesine dihydrochloride]
pKi (Sigma-1 receptors [1]): 7.77 | pKi (Sigma-2 receptors; Table 11E, clinical compounds, second figure of S1/S2, read-out: Sigma Affinity (S2)): < 5.74 | Other Targets: VAChT (VAChT): VAChT(50 nM), | Other Targets: muscarinic M1, 2, D2 (muscarinic M1, 2, D2): D2 (2 uM), alpha1 | Other Targets: alpha1 AR, 5-HT1a/2, H1 (alpha1 AR, 5-HT1a/2, H1): (2 uM)

Fc1ccc(-n2cc(CCCCN3CCC4(CC3)OCc3ccccc34)c3ccccc32)cc1 [siramesine]
Effect on Abeta oligomer trafficking deficits over the concentrations tested [2]: blocks Abeta oligomer trafficking deficits at low concentrations, but causes cellular toxicity at high concentrations | pEC50 ([2]; Rattus norvegicus, Hippocampal neuron, Table 11C, known prior art compounds, read-out: Inhibition Abeta oligomer-induced Membrane Trafficking EC50): 5.89 | Functional Neuronal Phenotype ([2]; Table 11C): Agonist | Action [3]: Full agonist | Caspase-3 activity induced in tumor cells [4]: induced caspase-3 activity | Caspase-3 activity induced in neurons [5]: induced | Displacement of [3H]-RHM-1 (sigma-2 receptor): partially displace | pKi (Sigma-1 receptors [6]; read-out: S1 binding Ki, Table 11C): 7.72 | pKi (Sigma-1 receptors [6]; read-out: Sigma 1 Binding Ki, known prior art compounds, published studies): 7.72 | Sigma 2 type of activity (Sigma-2 receptors; in brackets after the Ki): agonist | Other Targets: alpha 1A, 1B (alpha 1A, 1B): 1A, 1B (300 nM) | Other Targets: D2 (D2): D2 (800 nM), alpha | Nuclear morphology / nuclear intensity in neurons (neuronal cultures): caused significant abnormal nuclear morphology
